Test results reported in patent publication US20210115509A1, “BIOMARKER FOR IDENTIFYING SPECIFIC EXPOSURE TO KETONES AND METHOD OF IDENTIFICATION USING THE SAME” (KOREA INSTITUTE OF SCIENCE AND TECHNOLOGY, priority 2019, published 2021).

Assays:
[1] = test system: BEAS-2B human bronchial epithelial cell line; test: MTT assay, cytotoxicity of ketone compounds in BEAS-2B cell line; assay type: cell-based; settings: human, 48 h
Experimental: BEAS-2B (Korean Cell Line Bank), a human bronchial epithelial cell line, was cultured using RPMI 1640 medium (Gibco, USA) supplemented with 10% FBS until the cells grew to about a confluence of 70 to 80% in a 100 mm dish.
Among ketones belonging to mVOCs (microbial volatile organic compounds) exposed to the environment, acetone, 2-butanone, 2-pentanone, 2-hexanone and 2-heptanone were selected, and the chemicals were dissolved in filtered distilled water (DW). A vehicle concentration was set to 0.1% or less in all experiments.
MTT assay using a BEAS-2B cell line was performed in accordance with the method of Mossman et al. (J. Immunol. Methods, 65, 55-63, 1983).
Specifically, the cells were seeded at a density of 3.5×10^4 cells/well in a 24-well plate and treated with the five ketone compounds dissolved in filtered distilled water, prepared in Example 1-2. After 48 hours, the result was mixed with 5 mg/ml of MTT (3-4,5-dimethylthiazol-2,5-diphenyltetrazolium bromide), added to a tube and incubated at 37° C. for 3 hours. Then, the medium was removed, the formed formazan crystal was dissolved in 500 μl of DMSO, and then 100 μl of the solution was transferred to a 96-well plate to measure an OD (optical density) value at 540 nm.

[2] = test system: BEAS-2B human bronchial epithelial cell line; test: Gene expression change by high-throughput RNA sequencing (NextSeq 500) in ketone-exposed BEAS-2B cells; assay type: cell-based
Experimental: RNA was extracted from cell samples of ketone-exposed and non-ketone-exposed groups using a TRIzol reagent (Life Technologies, USA) in accordance with the manufacturer's directions to isolate total RNA and the total RNA was purified using a RNeasy mini kit (Qiagen, USA). The concentration of each total RNA sample was determined by a ND-2000 spectrophotometer (Thermo Inc., DE, USA) as a spectrophotometer and Agilent 2100 Bioanalyzer (Agilent Technologies, USA).
The establishment of libraries from the total RNA obtained in Example 2-1 in the experimental group and the normal control group exposed to the ketones was carried out using a QuantSeq 3′ mRNA-Seq Library Prep Kit (Lexogen, Inc., Austria) in accordance with the manufacturer's directions. 500 ng of the total RNA was hybridized with an oligo-dT primer including an Illumina-compatible sequence at the 5′ end of RNA, followed by reverse transcription. After degradation of the RNA template, a second strand was synthesized using a random primer including an Illumina-compatible linker sequence at the 5′ end thereof. Double-stranded libraries were purified using magnetic beads to remove all reaction components. The library was amplified in order to add the entire adapter sequence required for cluster production, and the completed cDNA library was purified from the PCR components.
Sequencing was performed by high-throughput sequencing as single-end 75 sequencing using a NextSeq 500 (IIlumina, Inc., USA). Read count (RC) data was processed based on the quantile normalization method using EdgeR in R (R development Core Team, 2016) using Bioconductor (Gentleman et al., 2004). Gene classification was based on searches performed on DAVID (http://david.abcc.ncifcrf.gov/) and the Medline database (http://www.ncbi.nlm.nih.gov/).
The extracted data were analyzed through normalization using Agilent GeneSpring GX 12.6.1 (Agilent technologies, CA, USA) to analyze the expression pattern of each gene.

[3] = IC5 conc.: Acetone 5.38, 2-Butanone 22.27, 2-Pentanone 5.24, 2-Hexanone 14.82, 2-Heptanone 5.05 mM
[4] = IC20 conc.: Acetone 71.90, 2-Butanone 106.21, 2-Pentanone 39.38, 2-Hexanone 52.51, 2-Heptanone 20.22 mM

SMILES: CCCCC(C)=O [2-Hexanone, 2-hexanone]
- concentration (105) providing a survival rate (viability) of 95% [1]: 14.82 mM
- concentration (1020) providing a survival rate (viability) of 80% [1]: 52.51 mM
- Fold change ADRA2A (NM_000681) [2, 3]: 0.410
- Fold change ATRNL1 (NR_074088) [2, 3]: 2.058
- Fold change C12orf79 (NR_046159) [2, 3]: 0.218
- Fold change C14orf80 (NR_046159) [2, 3]: 0.358
- Fold change CALML3 (NM_001286399) [2, 3]: 0.358
- Fold change CCDC184 (NM_001013635) [2, 3]: 3.872
- Fold change CD37 (NM_001040031) [2, 3]: 4.214
- Fold change CDHR1 (NM_001171971) [2, 3]: 0.228
- Fold change CHL1 (NM_001253387) [2, 3]: 0.296
- Fold change COL4A3 (NM_000091) [2, 3]: 4.765
- Fold change CRLF2 (NM_022148) [2, 3]: 0.362
- Fold change CSF3R (NM_172313) [2, 3]: 0.358
- Fold change DNMBP-AS1 (NR_024130) [2, 3]: 14.919
- Fold change EGR1 (NM_001964) [2, 3]: 0.448
- Fold change GNA14 (NM_004297) [2, 3]: 8.515
- Fold change LOC728752 (NR_036504) [2, 3]: 6.212
- Fold change PAX8 (NM_003466) [2, 3]: 5.964
- Fold change PRRT3-AS1 (NR_046734) [2, 3]: 2.811
- Fold change RBP3 (NM_002900) [2, 3]: 0.358
- Fold change SEPT14 (NM_207366) [2, 3]: 0.220
- Fold change SERPINA12 (NM_001304461) [2, 3]: 0.358
- Fold change SLC13A4 (NM_012450) [2, 3]: 4.947
- Fold change SPOCK2 (NM_001244950) [2, 3]: 4.851
- Fold change TSPAN1 (NM_005727) [2, 3]: 2.828
- Fold change USP12-AB1 (NR_046647) [2, 3]: 3.862
- Fold change VIPR†-AS1 (NR_046654) [2, 3]: 0.358
- Fold change XIRP1 (NM_001198621) [2, 3]: 0.358
- Fold change ZFP69B (NM_023070) [2, 3]: 4.095
- Fold change ZNF432 (NM_014650) [2, 3]: 5.206
- Fold change ZNF487 (NR_026693) [2, 3]: 0.358
- Fold change ADRA2A (NM_000681) [2, 4]: 0.179
- Fold change ATRNL1 (NR_074088) [2, 4]: 2.281
- Fold change C12orf79 (NR_046159) [2, 4]: 0.213
- Fold change C14orf80 (NR_046159) [2, 4]: 0.354
- Fold change CALML3 (NM_001286399) [2, 4]: 0.354
- Fold change CCDC184 (NM_001013635) [2, 4]: 6.982
- Fold change CD37 (NM_001040031) [2, 4]: 2.819
- Fold change CDHR1 (NM_001171971) [2, 4]: 0.432
- Fold change CHL1 (NM_001253387) [2, 4]: 0.364
- Fold change COL4A3 (NM_000091) [2, 4]: 4.424
- Fold change CRLF2 (NM_022148) [2, 4]: 0.355
- Fold change CSF3R (NM_172313) [2, 4]: 0.354
- Fold change DNMBP-AS1 (NR_024130) [2, 4]: 5.009
- Fold change EGR1 (NM_001964) [2, 4]: 0.328
- Fold change GNA14 (NM_004297) [2, 4]: 4.986
- Fold change LOC728752 (NR_036504) [2, 4]: 6.982
- Fold change PAX8 (NM_003466) [2, 4]: 2.992
- Fold change PRRT3-AS1 (NR_046734) [2, 4]: 3.123
- Fold change RBP3 (NM_002900) [2, 4]: 0.354
- Fold change SEPT14 (NM_207366) [2, 4]: 0.214
- Fold change SERPINA12 (NM_001304461) [2, 4]: 0.354
- Fold change SLC13A4 (NM_012450) [2, 4]: 7.012
- Fold change SPOCK2 (NM_001244950) [2, 4]: 3.833
- Fold change TSPAN1 (NM_005727) [2, 4]: 4.272
- Fold change USP12-AB1 (NR_046647) [2, 4]: 3.988
- Fold change VIPR†-AS1 (NR_046654) [2, 4]: 0.354
- Fold change XIRP1 (NM_001198621) [2, 4]: 0.354
- Fold change ZFP69B (NM_023070) [2, 4]: 2.573
- Fold change ZNF432 (NM_014650) [2, 4]: 4.577
- Fold change ZNF487 (NR_026693) [2, 4]: 0.354

SMILES: CCCC(C)=O [2-Pentanone, 2-pentanone]
- concentration (105) providing a survival rate (viability) of 95% [1]: 5.24 mM
- concentration (1020) providing a survival rate (viability) of 80% [1]: 39.33 mM
- Fold change ADRA2A (NM_000681) [2, 3]: 0.179
- Fold change ATRNL1 (NR_074088) [2, 3]: 4.158
- Fold change C12orf79 (NR_046159) [2, 3]: 0.213
- Fold change C14orf80 (NR_046159) [2, 3]: 0.354
- Fold change CALML3 (NM_001286399) [2, 3]: 0.354
- Fold change CCDC184 (NM_001013635) [2, 3]: 4.501
- Fold change CD37 (NM_001040031) [2, 3]: 2.028
- Fold change CDHR1 (NM_001171971) [2, 3]: 0.216
- Fold change CHL1 (NM_001253387) [2, 3]: 0.335
- Fold change COL4A3 (NM_000091) [2, 3]: 2.229
- Fold change CRLF2 (NM_022148) [2, 3]: 0.355
- Fold change CSF3R (NM_172313) [2, 3]: 0.354
- Fold change DNMBP-AS1 (NR_024130) [2, 3]: 2.406
- Fold change EGR1 (NM_001964) [2, 3]: 0.419
- Fold change GNA14 (NM_004297) [2, 3]: 8.261
- Fold change LOC728752 (NR_036504) [2, 3]: 7.322
- Fold change PAX8 (NM_003466) [2, 3]: 2.723
- Fold change PRRT3-AS1 (NR_046734) [2, 3]: 2.817
- Fold change RBP3 (NM_002900) [2, 3]: 0.354
- Fold change SEPT14 (NM_207366) [2, 3]: 0.214
- Fold change SERPINA12 (NM_001304461) [2, 3]: 0.354
- Fold change SLC13A4 (NM_012450) [2, 3]: 8.995
- Fold change SPOCK2 (NM_001244950) [2, 3]: 4.031
- Fold change TSPAN1 (NM_005727) [2, 3]: 4.281
- Fold change USP12-AB1 (NR_046647) [2, 3]: 7.329
- Fold change VIPR†-AS1 (NR_046654) [2, 3]: 0.354
- Fold change XIRP1 (NM_001198621) [2, 3]: 0.354
- Fold change ZFP69B (NM_023070) [2, 3]: 2.472
- Fold change ZNF432 (NM_014650) [2, 3]: 4.086
- Fold change ZNF487 (NR_026693) [2, 3]: 0.354
- Fold change ADRA2A (NM_000681) [2, 4]: 0.184
- Fold change ATRNL1 (NR_074088) [2, 4]: 2.665
- Fold change C12orf79 (NR_046159) [2, 4]: 0.216
- Fold change C14orf80 (NR_046159) [2, 4]: 0.356
- Fold change CALML3 (NM_001286399) [2, 4]: 0.356
- Fold change CCDC184 (NM_001013635) [2, 4]: 2.387
- Fold change CD37 (NM_001040031) [2, 4]: 3.272
- Fold change CDHR1 (NM_001171971) [2, 4]: 0.223
- Fold change CHL1 (NM_001253387) [2, 4]: 0.273
- Fold change COL4A3 (NM_000091) [2, 4]: 5.033
- Fold change CRLF2 (NM_022148) [2, 4]: 0.359
- Fold change CSF3R (NM_172313) [2, 4]: 0.356
- Fold change DNMBP-AS1 (NR_024130) [2, 4]: 8.289
- Fold change EGR1 (NM_001964) [2, 4]: 0.332
- Fold change GNA14 (NM_004297) [2, 4]: 6.776
- Fold change LOC728752 (NR_036504) [2, 4]: 5.683
- Fold change PAX8 (NM_003466) [2, 4]: 2.277
- Fold change PRRT3-AS1 (NR_046734) [2, 4]: 3.902
- Fold change RBP3 (NM_002900) [2, 4]: 0.356
- Fold change SEPT14 (NM_207366) [2, 4]: 0.218
- Fold change SERPINA12 (NM_001304461) [2, 4]: 0.356
- Fold change SLC13A4 (NM_012450) [2, 4]: 2.153
- Fold change SPOCK2 (NM_001244950) [2, 4]: 2.181
- Fold change TSPAN1 (NM_005727) [2, 4]: 3.938
- Fold change USP12-AB1 (NR_046647) [2, 4]: 2.362
- Fold change VIPR†-AS1 (NR_046654) [2, 4]: 0.356
- Fold change XIRP1 (NM_001198621) [2, 4]: 0.356
- Fold change ZFP69B (NM_023070) [2, 4]: 2.299
- Fold change ZNF432 (NM_014650) [2, 4]: 5.290
- Fold change ZNF487 (NR_026693) [2, 4]: 0.356
